From US20140221210A1, “ACYL-HOMOSERINE LACTONE DERIVATIVES FOR IMPROVING PLANT YIELD” (priority 2011, published 2014)

What was measured:
Spring wheat = Spring wheat field trial (2010); assay type: in vivo; conditions: seed treatment of spring wheat, result in words
Procedure: Maize and wheat field trials were conducted in order to evaluate several assessments including the weight of plant (leaf+roots), the formation of mycorrhiza, and yield parameters like the weight of grains per plot in tons per ha and the 1000 kernel weight. In addition to the tested compounds, a basic treatment of fungicides was also applied on the seeds. The tested active ingredients were pre-diluted in DMSO and applied on seeds in tank mix with fungicides. Spring wheat: Germany (Monheim), soil description: sandy loam, phosphor 11 mg/100 g soil, potassium 14 mg/100 g soil, magnesium 8 mg/100 g soil, organic matter 1.2%, pH 6.4. Sowing date: 2010-04-01 In both crops no phosphate or potassium fertilizer were applied. Compound A1: 0.1 and 1 milligrams active ingredient per hectare Base: Fungicide: Fluoxastrobin+Prothioconazole+Tebuconazole FS 80/Dosage: 5.6+5.6+0.747 grams active ingredient per 100 kg seeds. The following yield parameters were assessed: tons per hectare (for wheat only), TKW=1000 kernel weight. Mycorrhization of roots of spring wheat plants was assessed by trypan blue staining followed by microscopy.

AMF spores = assay: Arbuscular mycorrhizal fungi (AMF) spore germination experiment; assay type: cell-based; conditions: 10^−8M in M-medium, 26.5° C. dark, average of 3 replicates
Procedure: Test is performed under lab conditions. The active ingredient was solved in a solvent (acetone) and added to warm culture medium (M-medium; Bécard et Fortin, 1988) to obtain a final concentration of 10^−8M. After filling the culture medium in 24-well plates, AMF spores were deposited on the surface of culture medium. Plates were incubated at 26.5° C. in the dark. Assessment consisted of counting of germinated spores 3 and 4 days after application (daa).

Soybean plants = assay: Greenhouse experiment on soybean inoculated with Bradyrhizobium japonicum; assay type: in vivo
Procedure: Test is performed under greenhouse conditions. The experiment was conducted at a constant air temperature of 25° C. (day) and 20° C. (night) and 65% relative humidity. Plants were regularly watered with ½ strength Nitrogen free Hoagland's solution (Hoagland and Arnon, 1950) as needed.
Initial culture of Bradyrhizobium japonicum was prepared by inoculating single cell colonies from petri plates in 200 mL Yeast Extract Mannithol (YEM) broth (pH 6.8) and incubated at 28° C. and shaken at 150 rpm until an OD600 of 0.2-0.3 is achieved (2-3 days). Absorbance (A600 nm) of the bacterial cultures was determined using a spectrophotometer. The culture was diluted to an OD600 of 0.08 and 1 mL of this culture was used for inoculation onto seeds of all treatments.
Soybean seeds were surface sterilized in 2% sodium hypochlorite for 3 min and then rinsed several times with distilled water (Bhuvaneswari et al. 1980). Seeds were directly sown in pots (130 mm diameter) containing a mixture of sand and turface (2:1, v/v). Five soybean seeds were put in each. Before sowing seeds were soaked in solution containing the active ingredient at the desired concentration for at least two hours. Bradyrhizobium japonicum inoculant prepared as described above was inoculated onto soybean seeds by pipetting 1 mL of diluted culture onto each seed. The seeds were covered gently with the potting mixture, kept on the growth bench. After monitoring emergence, seedlings were thinned to one seedling per pot.
The plants were allowed to grow for 45 days after seeding and were then harvested for final data collection. Data were collected on the following variables: • 1. SPAD meter readings (leaf greenness measurements (chlorophyll content); SPAD-502 Chlorophyll Meter (Konica Minolta Sensing Inc., Japan) • 2. Number of nodules per plant • 3. Nodule dry weight

[1] = tested on: Glomus intraradices / Medicago truncatula plantlets; assay: In vitro phosphate (33P) transport to host plant by mycorrhizal fungi; assay type: in vivo; conditions: 96 hours after addition of 33P, average of 4 replicates
Procedure: One-week-old Medicago truncatula plantlets were transferred in the AM-P in vitro culture systems (details on AM-P systems see: H. Dupré Boulois et al., 2006). The roots were placed in the root compartment (RC) on the surface of the solid MSR medium (Declerck et al., 2003) lacking vitamins and sucrose. The RC was filled with 25 ml and the hyphal compartment (HC) with 20 ml of solid MSR medium, lacking sucrose, vitamins and solidified with 3 g l^−1 Phytagel.
Roots of M. truncatula plantlets were subsequently inoculated with the spores (±100) of Glomus intraradices. The bi-compartmented Petri plates of the AM-P in vitro culture systems were then sealed using Parafilm (Pechiney, Menasha, Wis., USA) and wrapped in black plastic bags to maintain roots and the G. intraradices in the dark. The AM-P in vitro culture systems were subsequently incubated in a controlled environment chamber (20° C., 16 h photoperiod). The AMP in vitro culture systems were supplied weekly with 5 ml of MSR medium up to 2 weeks before radio-isotopic labelling (10 weeks after inoculation).
Three weeks after inoculation, AM fungal mycelium started to contact the roots and to develop in the entire volume of the RCs. Between week 5 and 7, the mycelium crossed the partition wall between the RCs and HCs and started to develop in the HCs. The roots that crossed the plastic barrier were trimmed to leave the HC void of roots. Eight weeks after inoculation, the medium contained in the HCs was removed and then replaced by fresh MSR medium, lacking sucrose, vitamins and solidified with 3 g l^−1 Phytagel. In this medium, the active ingredient at the desired concentrations (in 0.1% acetone) was also added. The mycelium started immediately to re-grow into the fresh medium containing the active ingredient. At time of labeling, the mycelium in the HCs was 2 weeks-old.
Ten weeks after beginning of the experiment (i.e. 2 weeks after initiation of hyphal development in the HCs containing the active ingredient), filter-sterilized (Acrodisc® Syringe Filters, PALL Corporation, Ann Arbor, Mich., USA) phosphorus (^33P) was added in the HCs (489520+/−12080 CPM per systems). The source of ^33P was orthophosphate in dilute hydrochloric acid (<0.1 M) supplied by Amersham Pharmacia Biotech (Buckinghamshire, UK). A control treatment was included. Four replicates were considered per treatment.
At the end of the experiment (i.e. 96 hours after the addition of ^33P), the shoots of M. truncatula were collected by cutting the shoots at the level of the solidified MSR medium contained in the RCs. The roots were then removed from the solidified MSR medium and cleaned-free from the remaining gel and extraradical mycelium. Root and shoots were oven dried (60° until constant weight) and weighted. […]

Maize plants = assay: Greenhouse experiment on maize (SPAD chlorophyll reading); assay type: in vivo; conditions: seeds soaked, 0.1 mg/ha, 45 days after seeding, average of 4 replicates
Procedure: Test is performed under greenhouse conditions. Plants were grown in pots on a growth bench in the greenhouse at constant air temperature of 25° C. (day) and 20° C. (night) and 65% relative humidity. Plants were regularly watered with ½ strength Hoagland's solution containing nitrogen (Hoagland and Arnon, 1950) as needed. Maize seeds were carefully surface sterilized in 2% sodium hypochlorite for 3 min. followed by several rinsing with sterile distilled water (Bhuvaneswari et al. 1980). Seeds were directly sown in pots ([…]) containing a mixture of sand and turface (2:1, v/v) (2.5 L in each pot. Five seeds were put in each pot. The seeds were covered gently with the potting mixture and kept on the growth bench. After counting emergence, seedlings were thinned to one seedling per pot. Before sowing, seeds were soaked in solution containing the active ingredient at the desired concentration for at least two hours. The plants were allowed to grow for 45 days after seeding and were then harvested for final data collection. Data were collected on the SPAD meter readings (leaf greenness measurements (chlorophyll content); SPAD-502 Chlorophyll Meter (Konica Minolta Sensing Inc., Japan)

Soybean seeds = assay: Germination test on soybean seeds; assay type: in vivo; conditions: agar plates, 7.5° C. dark, 5 replicates of 20 seeds
Procedure: (§1) The test is performed under lab conditions. Soybean and maize seeds, treated with the active ingredient solved in DMSO and diluted with water to the desired dosages, are placed on sterile agar plates (0.5% agar in water). Covered plates are incubated at 7.5° C. and 10° C. respectively in the dark. Wheat seeds, treated with the active ingredient, solved in DMSO and diluted with water to the desired dosages, are placed on sterile agar plates (1% agar in water). Covered plates are incubated at 7.5° C. in the dark. Controls are performed in the same conditions in the absence of the active ingredient. Assessment consisted of counting germinated seeds per plate at different time points.

Maize seeds = assay: Germination test on maize seeds; assay type: in vivo; conditions: agar plates, 10° C. dark, 5 replicates of 20 seeds
Procedure: as §1

Wheat seeds = assay: Germination test on wheat seeds; assay type: in vivo; conditions: agar plates, 7.5° C. dark, 5 replicates of 20 seeds
Procedure: as §1

[2] = tested on: maize roots inoculated with arbuscular mycorrhizal fungi; assay: Greenhouse experiment on maize under low phosphate conditions (mycorrhization of roots); assay type: in vivo; conditions: maize seed treatment 0.1 mg/ha, AMF inoculum, low phosphate (20 μM), 6 weeks greenhouse, trypan blue staining
Procedure: Test is performed in the greenhouse. 5 maize seeds per treatment were sown in 500 ml rose pots (7×7×18 cm) containing a mix of sand and perlite (1:1). 3 replicates were made. The active ingredient was solved in a DMSO and seed treatment was performed with lab equipment. To inoculate with arbuscular mycorrhizal fungi, 8 ml inoculum (AMykor GmbH; Germany) were mixed with 1 l of the sand-perlite mixture. Seeds were covered by 3 cm of LECA (light expanded clay aggregate). Pots were incubated in the greenhouse for 6 weeks at 21.5° C./14° C. (day/night) and 80% relative humidity. Once a week plants were watered with nutrient solution (half concentrated Hoagland solution (Hoagland and Arnon, 1950)) containing only a low concentration of phosphate (20 μM). Assessment consisted of mycorrhization of roots. Mycorrhization was evaluated after trypan blue staining by microscopy. Controls are performed in the same conditions in the absence of the active ingredient.

Arabidopsis root = conditions: literature report (Planta, 2008); cited from earlier work
[3] = soybean, seeds soaked, 0.1 mg/ha, 45 days after seeding, average of 4 replicates

SMILES	yield (Spring wheat)	Germination rate 3 daa (AMF spores; 3 days after application) [%]	Germination rate 4 daa (AMF spores; 4 days after application) [%]	biomass (root and shoot) (Soybean plants; soybean seeds treated, greenhouse, comparatively to the control, figures not given)	Nodule weight (dry) (Soybean plants; [3]) [g]	Number of nodules (Soybean plants; [3])	SPAD (Soybean plants; [3])	^33P counting root ([1]; 10^−6 M in hyphal compartment)	^33P counting shoot ([1]; 10^−6 M in hyphal compartment)	^33P counting root ([1]; 10^−7 M in hyphal compartment)	^33P counting shoot ([1]; 10^−7 M in hyphal compartment)	SPAD (Maize plants)	Soybean Germination rate 7 daa (Soybean seeds; seed treatment 0.1 mg/ha) [%]	Soybean Germination rate 7 daa (Soybean seeds; seed treatment 1 mg/ha) [%]	Maize Germination rate 6 daa (Maize seeds; seed treatment 0.1 mg/ha) [%]	Maize Germination rate 6 daa (Maize seeds; seed treatment 1 mg/ha) [%]	Wheat Germination rate 3 daa (Wheat seeds; seed treatment 0.1 mg/ha) [%]	Wheat Germination rate 3 daa (Wheat seeds; seed treatment 1 mg/ha) [%]	Mycorrhization [2] [%]	Arabidopsis root length (Arabidopsis root)
CCCCCC(=O)CC(=O)NC1CCOC1=O (centres unmarked) [Compound A1]	significative yield increase	58	78	increase of biomass (root and shoot)	0.180	84	34	121485.7	61277.6	111374.4	70473.9	42	77	84	95	94	52	69	4.3	–
CCCCCC(=O)NC1CCOC1=O (centres unmarked) [N-hexanoyl-d1-homoserine-lactone]	–	–	–	–	–	–	–	–	–	–	–	–	–	–	–	–	–	–	–	small increase
